How the values were obtained:
BDKRB2 = target: T1, BDKRB2 (Homo sapiens, UniProt P30411); assay: NanoBRET screen HiBiT-BDKRB2 in HEK293; assay type: binding; conditions: BDKRB2
T1 construct: purchased Promega (in-house HiBiT-GPCR construct library, NanoBRET)
T1 sequence (P30411 1-391): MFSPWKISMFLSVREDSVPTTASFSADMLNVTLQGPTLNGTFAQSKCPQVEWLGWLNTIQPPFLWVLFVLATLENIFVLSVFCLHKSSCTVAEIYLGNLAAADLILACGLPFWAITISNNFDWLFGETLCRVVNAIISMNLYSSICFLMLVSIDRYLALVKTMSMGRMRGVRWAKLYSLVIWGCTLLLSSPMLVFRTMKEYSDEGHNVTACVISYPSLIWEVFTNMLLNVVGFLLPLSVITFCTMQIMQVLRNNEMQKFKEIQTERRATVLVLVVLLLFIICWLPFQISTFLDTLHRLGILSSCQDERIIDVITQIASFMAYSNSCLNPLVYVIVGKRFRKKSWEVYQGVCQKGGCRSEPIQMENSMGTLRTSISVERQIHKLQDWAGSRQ
Description: (§1) Each tracer candidate was screened across the entire library of HiBiT-GPCR constructs using NanoBRET as the detection modality. As depicted in Figure 4A, the specificity of interactions was evaluated through decrease in BRET due to competitive displacement of a bound tracer by excess parental compound. Each tracer was analyzed for binding to each HiBiT-GPCR fusion in the absence and in the presence of competing parental compound. Briefly, HEK293 cells were transfected with HiBiT-GPCR constructs diluted into promoterless DNA to reduce expression and maximize translocation to the cell surface. Each tracer candidate was then screened at concentrations of 1 μM and 0.1 μM across cells expressing these fusions. Cells were treated for 1.5 h with tracer either alone or in the presence of 20 μM competing parental compound (i.e., control). BRET was measured upon addition of purified LgBiT and subsequent complementation with HiBiT genetically fused to a GPCR. The specificity of interactions was assessed through a decrease in BRET signal due to competitive displacement of the bound tracer. To further gauge the robustness of these interactions, the fold response over the control (i.e., BRETtracer/BRETcontrol) was calculated. We chose a 1.5-fold response, which translates to ≥7-fold signal over noise as the minimal threshold required to score an interaction as positive. […]. Below we highlight the screening results obtained for our exemplary fluorescent tracers based on Clozapine, Amitriptyline and AZD1283.
(§2) HiBiT-GPCR DNA constructs were diluted in 10 mM Tris pH 8 to a final concentration of 0.01 μg/μL, arrayed in 96-well plates and stored at −20 °C. For transfection, HEK293 cells were suspended in Opti-MEM (without phenol red) supplemented with 2% fetal bovine serum (Seradigm) and 100 units/mL penicillin–streptomycin (Gibco) at a final concentration of 220,000 cells/mL and dispensed into white 96-well plates at 90 μL/well. Subsequent transfections and screens were carried using an Agilent Bravo Automated Liquid Handling Platform. First, the 96-well HiBiT DNA arrays were diluted 25-fold in Opti-MEM (without serum or phenol red) to a final concentration of 0.0004 μg/μL and 20 μL of the diluted DNAs were transferred into new 96-well plates. Next, promoterless carrier DNA (1 μg/μL) was diluted 25-fold (0.04 μg/μL) and then dispensed into the diluted arrays at 20 μL/well. Following brief mixing, Viafect transfection reagent (Promega) diluted 16-fold into Opti-MEM was dispensed into the plates at 40 μL/well. After mixing by pipetting, plates were incubated for 10 min on the pipetting station deck. The DNA-transfection reagent complexes were then added to plates containing cells. To facilitate the screen, 10 μL of DNA-transfection reagent complexes were added in duplicates to the top 4 and bottom 4 rows, resulting in two identical 48-well arrays per plate. Plates with transfected cells were incubated for 18–20 h at 37 °C/5% CO2. A screen of each tracer across the entire library using two different concentrations requires duplicate plates of transfected cells. Depending on the number of tracers being screened, transfections can be scaled up using the same ratios. The next day, for each tracer, four 20× screening solutions in tracer dilution buffer (Promega) were prepared: two duplicates at final concentration of 20 μM and two duplicates at a final concentration of 2 μM. A competing unmodified compound was added to one of each duplicate at a final concentration of 400 μM. The four resulting solutions were diluted 4-fold in Opti-MEM without serum or phenol red to generate 5× solutions (5 µM and 0.5 µM tracer +/− 100 μM competing compound). To screen the library, a BioTek MultiFlo FX liquid dispenser was used to dispense 22.5 µL of tracer solution to the top 4 rows and 22.5 µL tracer + competing compound solution to the 4 bottom rows. Plates were briefly mixed on an orbital shaker and incubated for 1.5 h at room temperature. […]

FZD4 = target: T2, FZD4 (Homo sapiens, UniProt Q9ULV1); assay: NanoBRET screen HiBiT-FZD4 in HEK293; assay type: binding; conditions: FZD4
T2 construct: purchased Promega (in-house HiBiT-GPCR construct library, NanoBRET)
T2 sequence (Q9ULV1 37-537): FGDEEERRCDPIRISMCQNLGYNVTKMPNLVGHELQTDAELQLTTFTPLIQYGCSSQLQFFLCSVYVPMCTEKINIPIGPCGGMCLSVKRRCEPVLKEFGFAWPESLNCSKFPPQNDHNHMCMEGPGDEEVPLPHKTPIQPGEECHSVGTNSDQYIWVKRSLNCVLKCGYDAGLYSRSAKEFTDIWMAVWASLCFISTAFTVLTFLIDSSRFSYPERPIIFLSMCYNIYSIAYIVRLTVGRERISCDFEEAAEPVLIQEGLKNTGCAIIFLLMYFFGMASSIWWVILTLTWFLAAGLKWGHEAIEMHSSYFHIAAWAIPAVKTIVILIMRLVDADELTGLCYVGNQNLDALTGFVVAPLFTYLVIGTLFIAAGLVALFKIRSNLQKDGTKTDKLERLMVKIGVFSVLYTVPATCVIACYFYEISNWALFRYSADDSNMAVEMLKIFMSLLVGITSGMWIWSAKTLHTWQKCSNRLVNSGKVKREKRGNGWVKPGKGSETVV
Description: as §1, §2

| SMILES | NanoBRET Fold Response (BDKRB2; tracer 0.1μM) | NanoBRET Fold Response (BDKRB2; tracer 1μM) | NanoBRET Fold Response (FZD4; tracer 0.1μM) | NanoBRET Fold Response (FZD4; tracer 1μM) | other results |
| --- | --- | --- | --- | --- | --- |
| CN1CCN(C2=Nc3cc(Cl)ccc3Nc3ccc(CNC(=O)CCOCCOCCOCCOCCNC(=O)CCc4ccc5n4[B-](F)(F)[N+]4=C(c6ccc[nH]6)C=CC4=C5)cc32)CC1 [Clozapine-b-2-NB590] |  |  |  |  | NanoBRET Fold Response (BDKRB2; 0.1μM tracer): 1.00; NanoBRET Fold Response (BDKRB2; 1μM tracer): 1.00; NanoBRET Fold Response (FZD4; 0.1μM tracer): 0.99; NanoBRET Fold Response (FZD4; 1μM tracer): 1.03 |
| CN1CCN(C2=Nc3cc(Cl)ccc3N(CC(=O)NCCOCCOCCOCCOCCNC(=O)CCc3ccc4n3[B-](F)(F)[N+]3=C(c5ccc[nH]5)C=CC3=C4)c3ccccc32)CC1 [Clozapine-c-2-NB590] |  |  |  |  | NanoBRET Fold Response (BDKRB2; 0.1μM tracer): 1.00; NanoBRET Fold Response (BDKRB2; 1μM tracer): 1.03; NanoBRET Fold Response (FZD4; 0.1μM tracer): 1.02; NanoBRET Fold Response (FZD4; 1μM tracer): 0.93 |
| O=C(CCOCCOCCOCCOCCNC(=O)CCc1ccc2n1[B-](F)(F)[N+]1=C(c3ccc[nH]3)C=CC1=C2)NCCCN1CCN(C2=Nc3ccccc3Oc3ccc(Cl)cc32)CC1 [Loxapine-a-2-NB590] | 1.08 | 1.16 | 0.98 | 0.89 |  |
| COc1ccccc1N1CCN(CCCCN2C(=O)c3ccc(CNC(=O)CCOCCOCCOCCOCCNC(=O)CCc4ccc5n4[B-](F)(F)[N+]4=C(c6ccc[nH]6)C=CC4=C5)cc3C2=O)CC1 [NAN-190-2-NB590] | 1.08 | 0.98 | 1.03 | 1.08 |  |
| COc1ccccc1N1CCN(CCCCN2C(=O)c3ccc(CNC(=O)CCOCCNC(=O)c4ccc(CNC(=O)CCc5ccc6n5[B-](F)(F)[N+]5=C(c7ccc[nH]7)C=CC5=C6)cc4)cc3C2=O)CC1 [NAN-190-3-NB590] | 0.97 | 0.88 | 1.03 | 1.38 |  |
| O=C(CCc1ccc2n1[B-](F)(F)[N+]1=C(c3ccc[nH]3)C=CC1=C2)NCc1ccc(C(=O)NCCOCCC(=O)N[C@@H]2CC[C@@]3(O)[C@H]4Cc5ccc(O)c6c5[C@@]3(CCN4CC3CC3)[C@H]2O6)cc1 [Naltrexone-3-NB590] | 1.07 | 0.94 | 0.89 | 1.14 |  |
| Cc1cc2c(s1)Nc1ccccc1N=C2N1CCN(CCCNC(=O)CCOCCOCCOCCOCCNC(=O)CCc2ccc3n2[B-](F)(F)[N+]2=C(c4ccc[nH]4)C=CC2=C3)CC1 [Olanzapine-a-2-NB590] | 0.97 | 1.06 | 1.00 | 0.93 |  |
| O=C(CCc1ccc2n1[B-](F)(F)[N+]1=C(c3ccc[nH]3)C=CC1=C2)NCc1ccc(C(=O)NCCOCCOCCNCC(O)COc2cccc3ccccc23)cc1 (stereo not drawn) [Propranolol-3-NB590] |  |  |  |  | NanoBRET Fold Response (BDKRB2; 0.1μM): 1.04; NanoBRET Fold Response (BDKRB2; 1μM): 1.07; NanoBRET Fold Response (FZD4; 0.1μM): 1.09; NanoBRET Fold Response (FZD4; 1μM): 1.07 |
| O=C(CCc1ccc2n1[B-](F)(F)[N+]1=C(c3ccc[nH]3)C=CC1=C2)NCCOCCOCCNC(=O)OCCOCCN1CCN(C2=Nc3ccccc3Sc3ccccc32)CC1 [Quetiapine-a-2-NB590] | 1.11 | 0.81 | 0.96 | 0.91 |  |

From PMC8151276, “An Integrated Approach toward NanoBRET Tracers for Analysis of GPCR Ligand Engagement” (Molecules, 2021)
